Columns and labels:
[1] = tested on: MASCs; assay: Osteogenic differentiation of MASCs with Notch activation by clustered Jag1/Fc, with or without DAPT; type: cell-based, human; conditions: for effect on Jagged stimulation of osteogenesis: 5 μM DAPT
Method: MASCs (prepared essentially as described in Example 1) were plated at 10^4 cells/well in 96-well plates in […]MEM (Mediatech, Herndon, Va.) supplemented with 10% Fetal Bovine Serum (FBS, HyClone, Logan Utah) and cultured overnight. The next day, cells were transferred to osteogenic differentiation medium (composition described in Example 5).
During the differentiation procedure, certain batches of cells were subjected to Notch activation via the Notch ligand Jagged. A fusion between the extracellular domain of the rat Jagged1 protein and the Fc region of human IgG (Jag1/Fc) was obtained from R&D Systems (Minneapolis, Minn.; Catalogue No. 599-JG), and the lyophilized preparation was reconstituted to a concentration of 1 mg/ml in PBS containing 0.1% (w/v) bovine serum albumin.
The chimeric Jag1/Fc protein was “clustered” by preincubation with a ten-fold weight excess of goat anti-human Fc (Sigma, St. Louis Mo.). Before use, the antibody solution (2 mg/ml) was dialyzed overnight, with three changes, against PBS to remove sodium azide. The volume of antibody solution was not changed by dialysis. For clustering, Jag1/Fc (1 mg/ml in PBS+0.1% BSA) and anti-human Fc (2 mg/ml in PBS) were mixed and incubated at room temperature for 40 min prior to addition to the cell cultures.
(§1) Clustered Jag1/Fc was added to cultures at a final concentration of 5 μg/ml Jag1/Fc and 50 μg/ml antibody. Control cultures received only the antibody. Additional cultures received Jag1/Fc and anti-Fc as above, along with 5 μM N—[N-(3,5-Difluorophenacetyl)-L-alanyl]-S-phenylglycine t-butyl ester (DAPT), a […]-secretase inhibitor. Stock solutions of 2 mM DAPT in DMSO were obtained from Sigma-Aldrich, St. Louis, Mo. […]-secretase is a protease that, upon activation of transmembrane Notch protein by a Notch ligand, cleaves the Notch protein at a site that allows release of the Notch intracellular domain. Certain cultures also included BMP-6 (final concentration 500 ng/ml), as described in Example 5.
(§2) After 10 days in culture, cells were fixed in methanol, stained with Alizarin Red and examined by microscopy as described in Example 5.

[2] = tested on: DRCs; assay: Osteogenic differentiation of DRCs with DAPT; type: cell-based, human; conditions: presence of BMP6
Method: as §1, §2

[3] = tested on: MASCs; assay: Adipogenic differentiation of MASCs with clustered Jag1/Fc, DAPT, BMP6; type: cell-based, human
Method: MASCs were prepared essentially as described in Example 1. Culture in adipogenic differentiation medium was as described in Example 6. Treatment of cells with Anti-Fc and Clustered Jag1/Fc were as described in Example 7. Fixation, staining with Oil Red O and analysis of adipogenic differentiation were as described in Example 6.

[4] = tested on: WISP1; assay: RT2 Profiler PCR Array Human Notch Signaling Pathway; type: cell-based; conditions: Jag-activated MASCs compared to MASCs
Method: (§3) The expression of a number of genes involved in Notch signaling, and in signaling pathways that interact with the Notch pathway (Wnt, Shh), was compared in DRCs and MASCs, using a commercial array (RT^2 Profiler PCR Array Human Notch Signaling Pathway plate, SA Biosciences No. PAHS-059F). The genes that were analyzed are shown in Table 2 (taken from SA Biosciences online Catalogue). Notch pathway members include genes encoding Notch ligands, enzymes that modify the Notch protein and various transcriptional regulatory proteins that control the expression of the Notch pathway members. Notch pathway targets are genes whose expression is either directly or indirectly regulated by Notch activation. Wnt pathway members are Wnt ligands or proteins that participate in WNT-mediated signaling pathways. The Wnt pathway was investigated because of known crosstalk between the Notch and Wnt signaling pathways, and because it is involved in osteogenic differentiation, which is inhibited in DRCs.
(§4) MASCs and DRCs, prepared and frozen as described in Examples 1-3, were thawed (Example 4), grown for 4-7 days in alpha-MEM/10% FBS/pen-strep, then replated into 10-cm Petri dishes at a concentration of 0.5×10^6 cells/dish, in duplicate. After re-plating, cells were grown for 4 days to allow intracellular levels of endogenous NICD, activated by trypsinization, to return to basal. At the end of this period, culture medium was carefully aspirated, the cells were lysed in 400 μl RLT Buffer (Qiagen, Valencia, Calif.), and the lysate was scraped from the plate.
(§5) As a control, MASCs that had been exposed to clustered soluble Jagged1 protein, to activate the Notch signaling pathway (see Example 7), were also analyzed and compared to MASCs.
(§6) The lysate was homogenized using a QiaShredder (Qiagen, Valencia, Calif.). The homogenate was mixed with ethanol, and the mixture was applied to a RNeasy column (Qiagen, Valencia, Calif.) and processed according to the manufacturer's instructions. The eluate was treated with a DNA-Free™ kit (Ambion, Austin, Tex.), according to the manufacturer's protocol, for elimination of genomic DNA.
(§7) RNA concentration and purity was assayed on Nanodrop spectrophotometer (Thermo Scientific, Wilmington, Del.). […]
(§8) cDNA samples, synthesized as described above, were diluted and added to RT^2 SYBR Green qPCR Master Mix (SA Biosciences) according to the manufacturer's recommendations. […] SYBR green fluorescence, normalized to controls also present on the array, is used a s a measure of mRNA level.
(§9) Results were analyzed using analysis tools provided by SA Biosciences, assigning results from MASCs to the “Control” field and DRC results to the “Test” field, to obtain figures for relative changes in expression for the genes assayed. […]

[5] = tested on: HES1; assay: as above; type: cell-based; conditions: Jag-activated MASCs compared to MASCs
Method: as §3, §4, §5, §6, §7, §8, §9

[6] = tested on: HR; assay: as above; type: cell-based; conditions: Jag-activated MASCs compared to MASCs
Method: as §3, §4, §5, §6, §7, §8, §9

[7] = tested on: CCND1; assay: as above; type: cell-based; conditions: Jag-activated MASCs compared to MASCs; two-fold criteria
Method: as §3, §4, §5, §6, §7, §8, §9

[8] = tested on: genes involved in Notch signaling; assay: RT2 Profiler PCR Array Human Notch Signaling Pathway, number of genes altered; type: cell-based; conditions: Jag-activated MASCs compared to MASCs; 84 genes tested
Method: as §3, with “Wnt pathway members are Wnt ligands or proteins that participate in WNT-mediated signaling pathways. The Wnt pathway was investigated because of known crosstalk between the Notch and Wnt signaling pathways, and because it is involved in osteogenic differentiation, which is inhibited in DRCs.” left out
As a control, MASCs that had been exposed to clustered soluble Jagged1 protein, to activate the Notch signaling pathway (see Example 7), were also analyzed and compared to MASCs. […]
as §8, §9

[9] = tested on: osteogenic differentiation; assay: Osteogenic differentiation potential assay (Alizarin Red staining); type: cell-based, human; conditions: BMP-6 500 ng/ml; MASCs, DRCs, mock DRCs
Method: For assay of osteogenic differentiation potential, cells (MASCs, DRCs or mock DRCs) were plated at 10^4 cells/well in 96-well plates in […]MEM (Mediatech, Herndon, Va.) supplemented with 10% Fetal Bovine Serum (FBS, HyClone, Logan Utah) and cultured overnight.
The next day, the culture medium was replaced with DMEM (Mediatech, Herndon, Va.) containing high glucose, pyruvate, glutamine and 10% FBS supplemented with 50 μg/ml Ascorbic acid (L-ascorbic acid 2-phosphate, Wako Chemical, Ltd., Japan, added freshly before use), 10 mM β-glycerophosphate (Sigma-Aldrich, St. Louis, Mo.), and 100 nM Dexamethasone (Sigma-Aldrich, St. Louis, Mo.). This “osteogenic differentiation medium” was changed every 3-4 days.
Osteogenic differentiation assays were conducted in the absence or presence of recombinant human bone morphogenetic protein 6 (BMP-6; R&D Systems, Minneapolis, Minn.), at a concentration of 500 ng/ml.
On day 14 or 17 after the transfer of cells into osteogenic differentiation medium, cultures were assayed for the presence of osteocytes by Alizarin Red staining. Cells were fixed by adding 100% methanol to the wells and incubating on ice for 3 min. The wells were then rinsed with water, and 40 mM alizarin red S (Sigma-Aldrich, St. Louis, Mo.), pH 4.2 was added. […]

[10] = tested on: adipogenic differentiation; assay: Adipogenic differentiation potential assay (Oil Red O staining); type: cell-based, human; conditions: BMP-6 100 ng/ml; day 17-21
Method: For assay of adipogenic differentiation potential, cells were plated at 10^4 cells/well in 96-well plates in […]MEM (Mediatech, Herndon, Va.) supplemented with 10% Fetal Bovine Serum (FBS, HyClone, Logan Utah) and cultured overnight.
The next day, the culture medium was replaced with DMEM (Mediatech, Herndon, Va.) containing high glucose, pyruvate, glutamine and 10% FBS supplemented with 1 μM Dexamethasone, […] 1-methyl-3 isobutylxanthine, 100 μM indomethacin and 10 μg/ml insulin (all supplements from Sigma-Aldrich, St. Louis, Mo.). This “adipogenic differentiation medium” was changed every 3-4 days.
Adipogenic differentiation assays were conducted in the absence or presence of recombinant human bone morphogenetic protein 6 (BMP-6; R&D Systems, Minneapolis, Minn.) at a concentration of 100 ng/ml.
On day 17-21 after transfer of cells into adipogenic differentiation medium, cells were tested for adipocytic differentiation by staining with Oil Red O. Cells were fixed by adding 10% formalin to the wells and incubating for 30-60 min at room temperature. Wells were then washed with 60% isopropanol and allowed to dry completely. Oil Red O working solution was freshly prepared from Oil Red stock solution (3.5 mg/ml in isopropanol) by diluting it 3:2 in water and filtering. Staining was conducted for 10 min; and the wells were then washed extensively with water. […]

Molecule: C[C@H](NC(=O)Cc1cc(F)cc(F)c1)C(=O)N[C@H](C(=O)OC(C)(C)C)c1ccccc1 [DAPT, N—[N-(3,5-Difluorophenacetyl)-L-alanyl]-S-phenylglycine t-butyl ester]
- effect on Jagged stimulation of osteogenesis ([1]; absence of BMP6): completely reversed
- effect on Jagged stimulation of osteogenesis ([1]; presence of BMP6 500 ng/ml): strongly reduced
- effect on osteogenic potential exhibited by DRCs [2]: reduced
- effect on stimulation of adipogenesis by BMP6 ([3]; DAPT with BMP6): enhanced further
- effect on adipogenesis of MASCs ([3]; DAPT, no BMP6): slightly enhanced adipogenesis

Molecule: Jag1/Fc: fusion between the extracellular domain of the rat Jagged1 protein and the Fc region of human IgG, clustered with goat anti-human Fc
- dose dependence of stimulation of osteogenesis ([1]; additional experiments): dose-dependent
- effect on osteogenesis of MASCs (Alizarin Red) ([1]; clustered Jag1/Fc 5 μg/ml, absence or presence of BMP6, 10 days): osteogenesis was strongly enhanced
- expression of Wisp1 [4]: up-regulated
- expression of Hes1 [5]: up-regulated
- expression of HR [6]: up-regulated
- expression of CCND1 (cyclin D1) [7]: not altered
- number of genes with activated expression (two-fold or more) [8]: 18 genes
- number of genes with reduced expression (50% or less) [8]: three
- effect on BMP6-enhanced adipogenesis of MASCs ([3]; Jag with BMP6): reversed
- effect on adipogenesis of MASCs ([3]; Jag with BMP6 and DAPT): no effect
- effect on adipogenesis of MASCs ([3]; clustered Jag1/Fc, absence of DAPT or BMP6): blocked

B1: BMP-6: recombinant human bone morphogenetic protein 6 (protein, UniProt P22004 375-513, looked up)
Bone morphogenetic protein 6: SASSRRRQQSRNRSTQSQDVARVSSASDYNSSELKTACRKHELYVSFQDLGWQDWIIAPKGYAANYCDGECSFPLNAHMNATNHAIVQTLVHLMNPEYVPKPCCAPTKLNAISVLYFDDNSNVILKKYRNMVVRACGCH
- effect of BMP-6 on degree of osteogenic differentiation [9]: increased the degree of osteogenic differentiation
- effect of BMP-6 on adipocytic differentiation of MASCs [10]: enhanced
- effect on adipogenesis of MASCs ([3]; BMP6 in the differentiation medium): strongly enhanced adipogenesis

— patent publication US20110306137A1, “METHODS AND COMPOSITIONS FOR MODULATING DIFFERENTIATION OF PLURIPOTENTIAL CELLS” (priority 2007, published 2011)
